This note sets out measurements from patent publication US8481696B2, “Glycosylated glycopeptide antibiotic derivatives” (Shionogi & Co., Ltd., priority 2007, dated 2013).

≈ marks a conversion by molar mass, not a printed value. Read-outs that look alike come from different tables or passages of the source.

For assay [1], the system named is E. faecium SR7940. The assay can be described thus: In vitro measurement of antibacterial activity (MIC, liquid dilution method). It counts as cell-based. The note with it: Enterococcus faecium. Here is the method: (§1) Some of the present compounds were measured for a minimum growth inhibition concentration (MIC) by a small amount of liquid dilution method using a cation-adjusted Muller Hinton liquid medium well-known to a person skilled in the art.

Assay [2] relates to E. faecalis SR7914. The assay is described as above. It counts as cell-based. As to conditions: E. faecalis SR7914, vancomycin-resistant Enterococcus (VRE VanA); cation-adjusted Muller Hinton liquid medium; read-out: MIC (minimum growth inhibition concentration). Here is the method: as §1
Where [3] appears, read: E. faecium SR7940, cation-adjusted Muller Hinton liquid medium, read-out: MIC (minimum growth inhibition concentration).

Regarding `CN[C@H](CC(C)C)C(=O)NC1C(=O)NC(CC(N)=O)C(=O)N[C@H]2C(=O)NC3C(=O)N[C@H](C(=O)NC(C(=O)O)c4cc(O)cc(O)c4-c4cc3ccc4O)[C@H](O[C@H]3C[C@](C)(N)[C@@H](O)[C@H](C)O3)c3ccc(c(Cl)c3)Oc3cc2cc(c3O[C@@H]2O[C@H](CO)[C@@H](O[C@@H]3O[C@H](CNCc4ccc(-c5ccc(F)c(F)c5)nc4)[C@H](O)[C@H](O)[C@H]3O)[C@H](O)[C@H]2O)Oc2ccc(cc2Cl)[C@H]1O` (stereo partly drawn) [Example 88], the MIC in assay [1] (setting [3]) lay within 1 to 4 µg/mL (≈ 0.551 to 2.21 µM); in assay [2], 2 to 4 µg/mL (≈ 1.1 to 2.21 µM).
On the same counts, the results for `CN[C@H](CC(C)C)C(=O)N[C@H]1C(=O)N[C@@H](CC(N)=O)C(=O)N[C@H]2C(=O)N[C@H]3C(=O)N[C@H](C(=O)N[C@@H](C(=O)O)c4cc(O)cc(O)c4-c4cc3ccc4O)[C@H](O[C@H]3C[C@](C)(N)[C@@H](O)[C@H](C)O3)c3ccc(c(Cl)c3)Oc3cc2cc(c3O[C@@H]2O[C@H](CO)[C@@H](O[C@@H]3O[C@H](CNCc4ccc(-c5cc(F)cc(F)c5)s4)[C@H](O)[C@H](O)[C@H]3O)[C@H](O)[C@H]2O)Oc2ccc(cc2Cl)[C@H]1O` [Example 82] are 1 to 4 µg/mL (≈ 0.55 to 2.2 µM) and 2 to 4 µg/mL (≈ 1.1 to 2.2 µM).
For `CN[C@H](CC(C)C)C(=O)NC1C(=O)N[C@@H](CC(N)=O)C(=O)N[C@H]2C(=O)N[C@H]3C(=O)N[C@H](C(=O)N[C@@H](C(=O)O)c4cc(O)cc(O)c4-c4cc3ccc4O)[C@H](OC3C[C@](C)(N)[C@@H](O)[C@H](C)O3)c3ccc(c(Cl)c3)Oc3cc2cc(c3O[C@@H]2O[C@H](CO)[C@@H](O[C@@H]3O[C@H](CNCc4ccc(Oc5ccc(F)cc5)cc4)[C@H](O)[C@H](O)[C@H]3O)[C@H](O)[C@H]2O)Oc2ccc(cc2Cl)[C@H]1O` (stereo partly drawn) [Example 50], the MIC in assay [1] (setting [3]) lay in the range of 1 to 4 µg/mL (≈ 0.552 to 2.21 µM); in assay [2], 2 to 4 µg/mL (≈ 1.1 to 2.21 µM).
On the same counts, the results for `CN[C@H](CC(C)C)C(=O)NC1C(=O)N[C@@H](CC(N)=O)C(=O)N[C@H]2C(=O)N[C@H]3C(=O)N[C@H](C(=O)N[C@@H](C(=O)O)c4cc(O)cc(O)c4-c4cc3ccc4O)[C@H](O[C@H]3C[C@](C)(N)[C@@H](O)[C@H](C)O3)c3ccc(c(Cl)c3)Oc3cc2cc(c3O[C@@H]2O[C@H](CO)[C@@H](O[C@@H]3O[C@H](CNCc4ccc(-c5ccc(Cl)cc5)s4)[C@H](O)[C@H](O)[C@H]3O)[C@H](O)[C@H]2O)Oc2ccc(cc2Cl)[C@H]1O` (stereo partly drawn) [Example 13] are 1 to 4 µg/mL (≈ 0.55 to 2.2 µM) and 2 to 4 µg/mL (≈ 1.1 to 2.2 µM).
On the same counts, the results for `CN[C@H](CC(C)C)C(=O)N[C@H]1C(=O)N[C@@H](CC(N)=O)C(=O)N[C@H]2C(=O)N[C@H]3C(=O)N[C@H](C(=O)N[C@@H](C(=O)O)c4cc(O)cc(O)c4-c4cc3ccc4O)[C@H](OC3C[C@](C)(N)[C@@H](O)[C@H](C)O3)c3ccc(c(Cl)c3)Oc3cc2cc(c3O[C@@H]2O[C@H](CO)[C@@H](O[C@@H]3O[C@H](CNCc4ccc(-c5cccs5)s4)[C@H](O)[C@H](O)[C@H]3O)[C@H](O)[C@H]2O)Oc2ccc(cc2Cl)[C@H]1O` (stereo partly drawn) [Example 75] are 1 to 4 µg/mL (≈ 0.559 to 2.24 µM) and 2 to 4 µg/mL (≈ 1.12 to 2.24 µM).
For the molecule `CN[C@H](CC(C)C)C(=O)N[C@H]1C(=O)N[C@@H](CC(N)=O)C(=O)N[C@H]2C(=O)N[C@H]3C(=O)N[C@H](C(=O)N[C@@H](C(=O)O)c4cc(O)cc(O)c4-c4cc3ccc4O)[C@H](OC3C[C@](C)(N)[C@@H](O)[C@H](C)O3)c3ccc(c(Cl)c3)Oc3cc2cc(c3O[C@@H]2O[C@H](CO)[C@@H](O[C@@H]3O[C@H](CNCc4ccc(C(=O)NCc5ccc(Cl)c(Cl)c5)cc4)[C@H](O)[C@H](O)[C@H]3O)[C@H](O)[C@H]2O)Oc2ccc(cc2Cl)[C@H]1O` (stereo partly drawn) [Example 69], the values for the MIC in assay [1] (setting [3]) and in assay [2] were 1 to 4 µg/mL (≈ 0.526 to 2.1 µM) and 2 to 4 µg/mL (≈ 1.05 to 2.1 µM), respectively.
The corresponding values for `CN[C@H](CC(C)C)C(=O)NC1C(=O)NC(CC(N)=O)C(=O)N[C@H]2C(=O)NC3C(=O)N[C@H](C(=O)N[C@H](C(=O)O)c4cc(O)cc(O)c4-c4cc3ccc4O)[C@H](OC3C[C@](C)(N)[C@@H](O)[C@H](C)O3)c3ccc(c(Cl)c3)Oc3cc2cc(c3O[C@@H]2O[C@H](CO)[C@@H](O[C@@H]3O[C@H](CNCc4ccc(-c5cccc(F)c5)s4)[C@H](O)[C@H](O)[C@H]3O)[C@H](O)[C@H]2O)Oc2ccc(cc2Cl)[C@H]1O` (stereo partly drawn) [Example 43] are 1 to 4 µg/mL (≈ 0.555 to 2.22 µM) and 2 to 4 µg/mL (≈ 1.11 to 2.22 µM).
On the same counts, the results for `CN[C@H](CC(C)C)C(=O)NC1C(=O)N[C@@H](CC(N)=O)C(=O)N[C@H]2C(=O)N[C@H]3C(=O)N[C@H](C(=O)N[C@@H](C(=O)O)c4cc(O)cc(O)c4-c4cc3ccc4O)[C@H](O[C@H]3C[C@](C)(NCc4c[nH]cn4)[C@@H](O)[C@H](C)O3)c3ccc(c(Cl)c3)Oc3cc2cc(c3O[C@@H]2O[C@H](CO)[C@@H](O[C@@H]3O[C@H](CNCc4cccc(NC(=O)c5cccc(OC(F)(F)F)c5)c4)[C@H](O)[C@H](O)[C@H]3O)[C@H](O)[C@H]2O)Oc2ccc(cc2Cl)[C@H]1O` (stereo partly drawn) [Example 30] are 1 to 4 µg/mL (≈ 0.504 to 2.02 µM) and 2 to 4 µg/mL (≈ 1.01 to 2.02 µM).
In the case of `CN[C@H](CC(C)C)C(=O)N[C@H]1C(=O)N[C@@H](CC(N)=O)C(=O)N[C@H]2C(=O)N[C@H]3C(=O)N[C@H](C(=O)N[C@@H](C(=O)O)c4cc(O)cc(O)c4-c4cc3ccc4O)[C@H](OC3C[C@](C)(N)[C@@H](O)[C@H](C)O3)c3ccc(c(Cl)c3)Oc3cc2cc(c3O[C@@H]2O[C@H](CO)[C@@H](O[C@@H]3O[C@H](CNCc4ccc(-n5cccc5)cc4)[C@H](O)[C@H](O)[C@H]3O)[C@H](O)[C@H]2O)Oc2ccc(cc2Cl)[C@H]1O` (stereo partly drawn) [Example 65], the MIC is 1 to 4 µg/mL (≈ 0.566 to 2.27 µM) in assay [1] (setting [3]) and 2 to 4 µg/mL (≈ 1.13 to 2.27 µM) in assay [2].
On the same counts, the results for `CN[C@H](CC(C)C)C(=O)NC1C(=O)N[C@@H](CC(N)=O)C(=O)N[C@H]2C(=O)N[C@H]3C(=O)N[C@H](C(=O)N[C@@H](C(=O)O)c4cc(O)cc(O)c4-c4cc3ccc4O)[C@H](O[C@H]3C[C@](C)(NCc4cccnc4)[C@@H](O)[C@H](C)O3)c3ccc(c(Cl)c3)Oc3cc2cc(c3O[C@@H]2O[C@H](CO)[C@@H](O[C@@H]3O[C@H](CNCc4cccc(NC(=O)c5cccc(OC(F)(F)F)c5)c4)[C@H](O)[C@H](O)[C@H]3O)[C@H](O)[C@H]2O)Oc2ccc(cc2Cl)[C@H]1O` (stereo partly drawn) [Example 31] are 1 to 4 µg/mL (≈ 0.501 to 2.01 µM) and 2 to 4 µg/mL (≈ 1 to 2.01 µM).
Turning to `CN[C@H](CC(C)C)C(=O)NC1C(=O)NC(CC(N)=O)C(=O)N[C@H]2C(=O)NC3C(=O)N[C@H](C(=O)N[C@H](C(=O)O)c4cc(O)cc(O)c4-c4cc3ccc4O)[C@H](OC3C[C@](C)(N)[C@@H](O)[C@H](C)O3)c3ccc(c(Cl)c3)Oc3cc2cc(c3O[C@@H]2O[C@H](CO)[C@@H](O[C@@H]3O[C@H](CNCc4ccc(-c5ccc(Cl)cc5)nc4)[C@H](O)[C@H](O)[C@H]3O)[C@H](O)[C@H]2O)Oc2ccc(cc2Cl)[C@H]1O` (stereo partly drawn) [Example 45], the MIC lay within 1 to 4 µg/mL (≈ 0.552 to 2.21 µM) in assay [1] (setting [3]) and 2 to 4 µg/mL (≈ 1.1 to 2.21 µM) in assay [2].
As for `CN[C@H](CC(C)C)C(=O)N[C@H]1C(=O)N[C@@H](CC(N)=O)C(=O)N[C@H]2C(=O)N[C@H]3C(=O)NC(C(=O)N[C@@H](C(=O)O)c4cc(O)cc(O)c4-c4cc3ccc4O)[C@H](O)c3ccc(c(Cl)c3)Oc3cc2cc(c3OC2O[C@H](CO)[C@@H](O)[C@H](O)[C@H]2OC2C[C@](C)(N)[C@H](O)[C@H](C)O2)Oc2ccc(cc2Cl)[C@H]1O` (stereo partly drawn) [vancomycin, reference compound], the MIC in assay [1] (SR7940, read-out: MIC (minimum growth inhibition concentration)) was above 64 µg/mL.
In the case of `CN[C@H](CC(C)C)C(=O)N[C@H]1C(=O)N[C@@H](CC(N)=O)C(=O)N[C@H]2C(=O)N[C@H]3C(=O)N[C@H](C(=O)N[C@@H](C(=O)O)c4cc(O)cc(O)c4-c4cc3ccc4O)[C@H](O[C@H]3C[C@](C)(N)[C@@H](O)[C@H](C)O3)c3ccc(c(Cl)c3)Oc3cc2cc(c3O[C@@H]2O[C@H](CO)[C@@H](O[C@@H]3O[C@H](CNCc4ccc(-c5ccc(OC)cc5)s4)[C@H](O)[C@H](O)[C@H]3O)[C@H](O)[C@H]2O)Oc2ccc(cc2Cl)[C@H]1O` [Example 83], the MIC in assay [1] (setting [3]) lay within 1 to 4 µg/mL (≈ 0.552 to 2.21 µM); in assay [2], 2 to 4 µg/mL (≈ 1.1 to 2.21 µM).
On the same counts, the results for `CN[C@H](CC(C)C)C(=O)NC1C(=O)NC(CC(N)=O)C(=O)N[C@H]2C(=O)NC3C(=O)N[C@H](C(=O)N[C@H](C(=O)O)c4cc(O)cc(O)c4-c4cc3ccc4O)[C@H](O[C@H]3C[C@](C)(N)[C@@H](O)[C@H](C)O3)c3ccc(c(Cl)c3)Oc3cc2cc(c3O[C@@H]2O[C@H](CO)[C@@H](O[C@@H]3O[C@H](CNCCn4ccc(NC(=O)c5ccc(OC(F)(F)F)cc5)nc4=O)[C@H](O)[C@H](O)[C@H]3O)[C@H](O)[C@H]2O)Oc2ccc(cc2Cl)[C@H]1O` (stereo partly drawn) [Example 11] are 1 to 4 µg/mL (≈ 0.517 to 2.07 µM) and 2 to 4 µg/mL (≈ 1.03 to 2.07 µM).
